Test results taken from US7399775B2, “β-amyloid protein production/secretion inhibitor” (Daiichi Pharmaceutical Co., Ltd., priority 2001, dated 2008).

Tests used:
[1] = system: β-amyloid protein (Aβ) production/secretion in E35 cells (H4 cells transfected with APP751); test: Cell-based assay for inhibition of production or secretion of β-amyloid protein (sandwich ELISA of Aβ in culture medium); set-up: species or system human; details: Homo sapiens, 24 h, 24 h with compound, Aβ in medium by sandwich ELISA, read-out: Activity (EC50 class, inhibition of Aβ secreted in culture medium)
Protocol: Cell-Based Assay for Screening of a Compound Which Inhibits Production or Secretion of β-Amyloid Protein
E35 cells which were established by transfecting APP751 gene which is a wild type human β-amyloid protein precursor into human glioma cells (H4 cells), were used to analyze inhibitory activity of a compound against β-amyloid production. The amount of β protein (Aβ) secreted in a culture medium was measured by the sandwich enzyme-linked imunosorbent assay.
E35 cells were seeded in Dulbecco's Modified Eagle's Medium containing 10% inactivated fetal bovine serum on 96-well plates and cultured in humidified air and 5% CO2 at 37° C. in a CO2 incubator. Twenty-four hours after seeding of the cells, a test compound dissolved in DMSO was added to the medium. The DMSO solution of the compound was prepared so as to give the final concentration of DMSO in the medium 0.05%. The cells were cultured for additional twenty-four hours, and then the cultured medium was collected. The medium collected was applied to a 96-well ELISA plate on which a monoclonal antibody 25-1, which recognized Aβ25-35, was immobilized, followed by the incubation at 4° C. for 16 to 20 hours. After washing with a phosphate buffer (pH 7.4), a biotinylated monoclonal antibody MA32-40, which recognizes Aβ1-8, was added to the plate, and the plate was incubated at 4° C. for 2 hours. Then alkaline phosphatase-conjugated streptavidin was added to the plate. Alkaline phosphatase activity was measured by a […] assay using BlouPhos (manufactured by KPL) as a substrate. An amount of Aβ in the medium was calculated using a calibration curve separately created. EC50 of the test compound was presented as the concentration that gives 50% inhibitory activity compared to the control cells which were not treated with the compound.

Row | SMILES | melting point [°C] | EC50 [1] [nM]
1 | CCCC(O)C(c1cc(F)ccc1F)S(=O)(=O)c1ccc(Cl)cc1 (centres unmarked) [Example 10, 1-[(4-Chlorophenyl)sulfonyl]-1-(2,5-difluorophenyl)-2-pentanol] | 134.5 to 135 | 50 to 500
2 | CC(CCCS(C)(=O)=O)C(c1cc(F)ccc1F)S(=O)(=O)c1ccc(Cl)cc1 (centres unmarked) [Example 46, 2-[1-[(4-Chlorophenyl)sulfonyl]-2-methyl-5-(methylsulfonyl)pentyl]-1,4-difluorobenzene] | 115 to 117 | 50 to 500
3 | O=S(=O)(c1ccc(Cl)cc1)C(c1cc(F)ccc1F)c1cc(N2CCOCC2)ncc1Cl (centres unmarked) [Example 347, 4-[5-Chloro-4-[(4-chlorophenylsulfonyl)-(2,5-difluorophenyl)methyl]pyridin-2-yl]morpholine] | 180 to 181 | ≤ 50
4 | O=S(=O)(c1ccc(Cl)cc1)C(c1cc(F)ccc1F)c1cc(N2CCC(O)CC2)ncc1Cl (centres unmarked) [Example 404, 5-Chloro-4-[(4-chlorophenylsulfonyl)-(2,5-difluorophenyl)methyl]-2-(4′-hydroxypiperidin-1′-yl)pyridine] | 146 to 148 | ≤ 50
5 | O=S(=O)(c1ccc(Cl)cc1)C(c1ccc(C2OCCO2)cn1)c1cc(F)ccc1F (centres unmarked) [Example 330, 2-[(4-Chlorophenylsulfonyl)-(2,5-difluorophenyl)methyl]-5-(1,3-dioxolan-2-yl)pyridine] | 167 to 168 | 50 to 500
6 | O=S(=O)(c1ccc(Cl)cc1)C(c1cc(F)ccc1F)C1CCSCC1 (centres unmarked) [Example 288, 4-[[(4-Chlorophenyl)sulfonyl](2,5-difluorophenyl)methyl]tetrahydrothiopyran] | 150 to 152 | 50 to 500
7 | O=S(=O)(c1ccc(Cl)cc1)C(c1cc(F)ccc1F)c1ccncc1Cl (centres unmarked) [Example 343, 3-Chloro-4-[(4-chlorophenylsulfonyl)-(2,5-difluorophenyl)methyl]pyridine] | 160 to 161 | ≤ 50
8 | O=S(=O)(c1ccc(Cl)cc1)C(CCCCCO)c1cc(F)ccc1F (centres unmarked) [Example 32, 6-[(4-Chlorophenyl)sulfonyl]-6-(2,5-difluorophenyl)-1-hexanol] | 98 to 99 | 50 to 500
9 | O=S(=O)(c1ccc(Cl)cc1)C(c1cccnc1)c1cc(F)ccc1F (centres unmarked) [Example 141, 3-[[(4-Chlorophenyl)sulfonyl]-(2,5-difluorophenyl)methyl]pyridine] | 130 to 131 | 50 to 500
10 | O=S(=O)(c1ccc(Cl)cc1)C(c1cc(F)ccc1F)C1CCCCC1 (centres unmarked) [Example 36, 2-[[(4-Chlorophenyl)sulfonyl](cylcohexyl)methyl]-1,4-difluorobenzene] | 107 to 109 | 50 to 500
11 | O=S(=O)(c1ccc(Cl)cc1)C(c1cc(F)ccc1F)C1CCOCC1 (centres unmarked) [Example 287, 4-[[(4-Chlorophenyl)sulfonyl](2,5-difluorophenyl)methyl]tetrahydropyran] | 150 to 152 | 50 to 500
12 | Cc1cccnc1C(c1cc(F)ccc1F)S(=O)(=O)c1ccc(Cl)cc1 (centres unmarked) [Example 136, 2-[[(4-Chlorophenyl)sulfonyl]-(2,5-difluorophenyl)methyl]-3-methylpyridine] | 142 to 143 | ≤ 50
13 | O=S(=O)(c1ccc(Cl)cc1)C(c1ccncc1)c1cc(F)ccc1F (centres unmarked) [Example 142, 4-[[(4-Chlorophenyl)sulfonyl]-(2,5-difluorophenyl)methyl]pyridine] | 126 to 127 | 50 to 500
14 | O=S(=O)(c1ccc(Cl)cc1)C(CCCCO)c1cc(F)ccc1F (centres unmarked) [Example 29, 5-[(4-Chlorophenyl)sulfonyl]-5-(2,5-difluorophenyl)-1-pentanol] | 84 to 86 | 50 to 500
15 | CCC=CC(c1cc(F)ccc1F)S(=O)(=O)c1ccc(Cl)cc1 (centres unmarked) [Example 14, 2-[1-[(4-Chlorophenyl)sulfonyl]-2-penten-1-yl]-1,4-difluorobenzene] | 99 to 100 | 500 to 5000
16 | O=S(=O)(c1ccc(Cl)cc1)C(CCOCCO)c1cc(F)ccc1F (centres unmarked) [Example 35, 2-[3-[(4-Chlorophenyl)sulfonyl]-3-(2,5-difluorophenyl)propoxy]ethanol] | 41 to 46 | 500 to 5000
